According to patent US20050260253A1, “Transmucosal gel formulations” (Recordati Ireland Limited, priority 2004, published 2005):
Where two headings read alike, the source gives them in different places.

How the values were obtained:
[1] = test system: genital blood flow in female anesthetized rabbits; experiment: Genital tissue oxyhemoglobin (genital engorgement) by laser oximetry, basal and after pelvic nerve stimulation, in vivo model of female sexual arousal; design: species or system rabbit (New Zealand White); conditions: for nerve-induced increase in genital tissue OxyHb: topical vaginal formulation; for mean AUC of genital tissue OxyHb compared to vehicle-treated control group: 15-35 min; for response to pelvic nerve stimulation (genital tissue oxyhemoglobin) vs control stimulations: vaginal submucosal injection 100 μg
Protocol: The effect of Rec 15/2615 formulation on genital blood flow, a physiologic parameters of female sexual arousal, was measured in both the basal, non-aroused state and following stimulation of the pelvic nerve, which mimics the sexually aroused state, in an established in vivo animal model of female sexual arousal (see, e.g., Munarriz, R., et al., 2003, A review of the physiology and pharmacology of peripheral (vaginal and clitoral) female genital arousal in the animal model, J. Urol. 170(2 Pt 2):S40-44; Min, K., et al., 2000, Sildenafil augments pelvic nerve-mediated female genital sexual arousal in the anesthetized rabbit. Intl. J. Impot. Res. 12(Suppl)3:S32-39; Tarcan, T., et al., 2000, Systemic administration of apomorphine improves the hemodynamic mechanism of clitoral and vaginal engorgement in the rabbit. Int J Impot Res. 12:235-240; Park, K., et al., 1997, Vasculogenic female sexual dysfunction: the hemodynamic basis for vaginal engorgement insufficiency and clitoral erectile insufficiency. Intl. J. Impot. Res. 9:27-37). Each of the foregoing references is incorporated herein by reference in its entirety.
(§1) Female New Zealand White rabbits (4.5 to 5 kg) were anesthetized by intramuscular injection of ketamine (35 mg/kg) and xylazine (5 mg/kg) and secured in the supine position. Anesthesia was maintained as needed with additional intramuscular xylazine (5 mg/ml). A midline neck incision (3 cm) was fashioned to access the carotid artery. A 20-gauge angiocatheter was inserted into the carotid artery for systemic blood pressure measurements. […] Body temperature was maintained with an electric heat pad. Following subcutaneous lidocaine injection, the perivesical space was exposed through a mid-line abdominal incision. The pelvic nerve was identified and carefully dissected under the perivesical fat on the postero-lateral aspect of the upper vagina. Bladder contents were aspirated through the bladder wall with an 18 gauge needle and 50 ml syringe. Under direct vision, a bipolar platinum wire electrode was hooked onto the pelvic nerve without cutting the nerve. Unilateral pelvic nerve stimulation was accomplished with a Grass SD9 stimulator set at normal polarity and repeat mode to generate a 30 second train of square waves with 10 V pulse amplitude, 0.8 msec pulse duration and 2-6 Hz frequency. A laser Doppler flowmetry surface probe (model BLF21D, Transonic System Inc, Ithaca, N.Y., USA) was placed into the rabbit vagina and used to confirm unilateral pelvic nerve stimulation. The interval between stimulations was 10-15 min to prevent nerve exhaustion.
Tissue hemoglobin concentration was determined by a near infrared optical spectroscopy technique using a dual channel laser oximeter (model 96208; ISS, Inc., Champaign, Ill.). This technique utilizes a continuous wave optical spectrometer with a fiber optic array probe consisting of one detector and 8 light sources. The sources emit light in the near infrared spectrum (700-900 nm) which can penetrate a targeted volume of tissue (˜530 mm^3) to an average depth of 7.2 mm beneath the optical fibers. By detecting scattered light, absorption by oxyhemoglobin (OHb) and deoxyhemoglobin can be quantified and total hemoglobin can be calculated. Laser oximetry can thus be utilized to assess local tissue hemodynamics in a non-invasive and continuous fashion. The skin around the labia was carefully shaved to ensure good contact with the optical fibers. The probe (2 cm in length) was positioned longitudinally on the skin overlying the clitoris, labia and vagina, such that the detector fiber was positioned just below the pubic arch. The probe assembly was secured in place by a metal stand. The area over the probe was covered with a black cloth to prevent any interference from natural or artificial ambient light sources.
A flexible 18 gauge catheter was attached to a syringe loaded with hydrogel formulation. The catheter was filled until the formulation reached 3-5 mm from the open end. […]

[2] = Plasma concentration of Rec 15/2615 by LC/MS-MS after vaginal application or submucosal injection; assay type: in vivo, rabbit; conditions: for concentration at 15 min: female, rabbit, plasma, read-out: Mean plasma levels of Rec 15/2615
Protocol: A flexible 18 gauge catheter was attached to a syringe loaded with hydrogel formulation. The catheter was filled until the formulation reached 3-5 mm from the open end. The catheter was placed 2.5 cm into the vagina and secured to the labia with suture to prevent migration. The syringe was placed on the heating pad to keep the formulation warm. Following control nerve stimulations, 1 ml of formulation was infused into the vagina. Pelvic nerve stimulation was repeated 15 min and 30 min afterwards. Nerve stimulation at the 15 min time point coincided with the time of maximal serum concentration.
Rec 15/2615 hydrochloride (1 mg/ml) was dissolved in 10% (v/v) N,N-dimethylformamide. Prior to the application of the laser oximeter probe, Rec 15/2615 hydrochloride solution was loaded into two 23 gauge infusion sets connected to 1 ml syringes (50 μl per infusion set). Needles were inserted into the distal vaginal wall, just below the mucosal surface, at the 3 and 9 o'clock positions. Following control nerve stimulations, drug was infused into the vagina. Pelvic nerve stimulation was repeated 15 min and 30 min after drug administration.
Blood samples (˜2 ml) were obtained from the carotid artery prior to formulation administration and then […] after formulation administration. Samples were collected in heparinized syringes and transferred into pre-cooled polypropylene tubes on ice. Plasma was obtained by centrifugation at 1200×g for 2 min at 4° C. and stored at −20° C.
0.1 mL of rabbit plasma was transferred to an Eppendorf tube and 10 μL of internal standard methanolic solution (0.2 μg/mL of 4-amino-6,7-dimethoxy-2-[4-(2-isopropyl-5-methylphenoxy acetyl)-1-piperazinyl]quinazoline (Rec 15/2693) in methanol) were added. 1 mL of acetonitrile was added to each sample and samples were shaken on a multimixer shaker for 1 min. Protein was allowed to precipitate and samples were then centrifuged at 4° C. for 10 min at 2700 g. The organic layer was transferred to a new glass tube and evaporated at 45° C. under a stream of nitrogen. The residue was dissolved in 250 μL of buffer solution containing methanol/10 mM ammonium formate, pH 3.5 (40:60; v/v). Samples were mixed 1 min using a vortex mixer and clarified by centrifugation (5 min×2700 g). The clarified solution was transferred into an autosampler vial. Aliquots of 20 μL were analyzed by LC/MS-MS.

[3] = test system: systemic blood pressure; experiment: Systemic blood pressure via carotid artery catheter in anesthetized rabbits; assay type: in vivo, rabbit (New Zealand White)
Protocol: as §1, with “The interval between stimulations was 10-15 min to prevent nerve exhaustion.” left out

SMILES	effect on genital tissue oxyhemoglobin administered as a gel compared with direct submucosal injection ([1]; formulations 0.075% and 0.15% vs submucosal injection, considering plasma levels at 15 min)	concentration at 15 min ([2]; other: submucosal injection into the distal vaginal wall, 15 min after direct submucosal injection of 0.1 mg)	concentration at 15 min ([2]; other: vaginal application, 15 min after vaginal application of 1 ml of formulation 0.075%)	concentration at 15 min ([2]; other: vaginal application, 15 min after vaginal application of 1 ml of formulation 0.15%)	concentration at 15 min ([2]; other: vaginal application, 15 min after vaginal application of 1 ml of formulation 0.3%)	plasma levels with increasing concentration of active compound in the formulation ([2]; vaginal application, 0.075-0.3%)	effect on blood pressure ([3]; topical vaginal administration, 0.075-0.3% formulations)	effect on systemic blood pressure ([3]; vaginal submucosal injection (data not shown))	nerve-induced increase in genital tissue OxyHb ([1]; pelvic nerve stimulation at 15 min)	nerve-induced increase in genital tissue OxyHb ([1]; pelvic nerve stimulation at 30 min)	AUC of genital tissue OxyHb relative to vehicle ([1]; topical vaginal, 0-35 min, dose-dependent trend)	mean AUC of genital tissue OxyHb compared to vehicle-treated control group ([1]; topical vaginal, 1 ml formulation 0.15%)	mean AUC of genital tissue OxyHb compared to vehicle-treated control group ([1]; topical vaginal, 1 ml formulation 0.3%)	mean area-under-the-curve (AUC) of genital tissue OxyHb compared to vehicle ([1]; topical vaginal, 1 ml formulation, 0-15 min, all concentrations except 0.15%)	duration of sustained genital engorgement following formulation administration ([1]; topical vaginal, duration of the experimental protocol)	response to pelvic nerve stimulation (genital tissue oxyhemoglobin) vs control stimulations ([1]; 15 min after injection)	response to pelvic nerve stimulation (genital tissue oxyhemoglobin) vs control stimulations ([1]; 30 min after injection)
COc1cc2nc(N3CCN(C(=O)COc4c(OC)cccc4C(C)C)CC3)nc(N)c2cc1OC.Cl.Cl [Rec 15/2615 hydrochloride]	higher than that obtained by direct injection																
COc1cc2nc(N3CCN(C(=O)COc4c(OC)cccc4C(C)C)CC3)nc(N)c2cc1OC [Rec 15/2615, 4-amino-6,7-dimethoxy-2-{4-[(2-isopropyl-6-methoxyphenoxy)acetyl]-1-piperazinyl}quinazoline]		26.3 ng/mL	10.6 ng/mL	45.2 ng/mL	72.5 ng/mL	dose-dependent increase	no significant effect	did not affect systemic blood pressure	significant increase	remained high	higher AUC values relative to vehicle	statistically significant difference	statistically significant difference	similar	up to 45 minutes	significantly enhanced response	did not reach statistical significance
